In patent US7772285B2, “Benzophenone derivatives or salts thereof” (Toyama Chemical Co., Ltd., priority 2001, dated 2010):

Columns and labels:
[1] = target: T1, AP-1 complex (Fos/Jun peptide) (Homo sapiens, UniProt P01100+P05412); assay: Effect on AP-1 binding activity to AP-1 recognition sequence (ELISA); settings: inhibition of binding of digoxigenin-labeled AP-1 binding sequence oligonucleotide to Fos/Jun peptide, absorbance 492 nm, read-out: Concentration (μM) at 50% inhibition
T1 construct: made in house; host or cells: chemical peptide synthesis (no expression host)
Description: Test Example 1 Effect on AP-1 Binding Activity to AP-1 Recognition Sequence (ELISA)
Jun peptide and Fos peptide with its N-terminal labeled with biotin via 4 glycine residues containing a DNA binding site [Nature, Vol. 373, 1995, 257-261] were synthesized. Each of the peptides was dissolved in Tris buffer [20 mM Tris-hydrochloric acid (pH 7.5), 50 mM potassium chloride, 1 mM ethylenediaminetetraacetic acid, 10 mM magnesium chloride, 1 mM dithiothreitol, 0.5 M guanidinohydrochloric acid, 30% glycerol], and equimolar amounts of the peptide solutions were mixed with each other to be used as an AP-1 complex (Fos/Jun peptide). The AP-1 complex was added onto a 96-well avidin-coated ELISA plate (10 pmol/well). The plate was washed, blocked by bovine serum albumin, and used for binding assay.
Digoxigenin-labeled double-stranded oligonucleotide (22mer) that contained AP-1 binding sequence (3′-TGAGTCA-5′) synthesized by conventional procedure was reacted in binding reaction solution [25 mM tris-hydrochloric acid (pH 7.9), 0.5 mM ethylenediaminetetraacetic acid, 0.05% Nonidet P-40, 10% glycerol] for 30 minutes at room temperature in the presence or absence of samples. After the reaction, unbound labeled oligonucleotide was removed by washing with HEPES buffer containing 0.05% Tween-20. Then peroxidase-labeled anti-digoxigenin antibody was added to react with the labeled oligonucleotide bound to AP-1. After removing excess antibody by washing with HEPES buffer containing 0.05% Tween-20, incubation was conducted for a certain period with o-phenylene diamine as a substrate in 100 mM citric acid buffer (pH 5.0) containing hydrogen peroxide, sulfuric acid solution was added to each well, and the absorbance (492 nm) was measured. Inhibition rate of each sample was calculated from the absorbance obtained in the binding assay carried out in the presence of the sample, taking the absorbance obtained in the absence of the sample=100%.

[2] = test system: Male DBA/1J mice; assay: Type II collagen-induced arthritis in mouse; type: in vivo; settings: 10 mg/kg orally once a day from 21 to 35 days after the initial inoculation, vs control group; for Bone destruction inhibition rate: X-ray bone destruction score 36 days after initial inoculation; for Arthritis inhibition rate: arthritis score on 36 days after initial inoculation
Description: Test Example 2 Type II Collagen-Induced Arthritis in Mouse
Male DBA/1J mice aged 8 weeks (Charles River Japan) were used. To a solution of 2 mg/mL bovine type II collagen in 0.1 mol/L acetic acid (Koken), an […] of Freund's complete adjuvant (DIFCO) was added to prepare an emulsion, and 0.2 ml of the emulsion was subcutaneously injected in the tail root region of each mouse. The same treatment was given 21 days after the initial inoculation to induce arthritis in the mice. Test compounds were each suspended in 0.5% methylcellulose solution, and 10 mg/kg of each test compound was given orally to mice once a day from 21 to 35 days after the initial inoculation. To a control group (a negative control group), 0.5% methylcellulose solution was given in the same manner.
Taking the maximum score as 12, the arthritis score was calculated to evaluate the severity of arthritis that was evaluated in the following manner: score 0: no change; score 1: swelling on one or two toes, or slight swelling in the carpal and tarsal joints; score 2: swelling and rubor in more joints; score 3: extensive swelling over whole foreleg or hindleg; and total of the four legs was calculated.
X-ray photographs of four paws were taken 36 days after the initial inoculation, and the severity of bone destruction was evaluated as bone destruction score on a maximum scale, the sum of the points for extremities, of 105 points: 0 or 0.5 points in accordance with presence or absence of osteoporosis in the joints and their vicinity, and for bone erosion, no change at 0 point; “partial bone destruction” at 1 point and “complete bone destruction” at 2 points in the second to fifth interdigital joints, the first to fifth metacarpal and metatarsal joints, and carpal, tarsal and calcaneal regions. Inhibition rate was calculated using the following equation: Inhibition rate(%)=100−(score of the group given the test compound/score of the control group)×100

T1 sequence (P01100 137-200 limits assumed): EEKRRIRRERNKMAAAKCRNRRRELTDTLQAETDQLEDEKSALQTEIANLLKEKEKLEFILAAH
T1 sequence (P05412 252-315 limits assumed): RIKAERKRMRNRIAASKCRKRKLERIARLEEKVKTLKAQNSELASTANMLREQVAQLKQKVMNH

O=C(O)CCc1cc(C(=O)c2ccc(OC3CCCC3)cc2O)ccc1OCc1ccc(C(=O)O)cc1O [32(1), 4-({2-(2-carboxyethyl)-4-[4-(cyclopentyloxy)-2-hydroxybenzoyl]phenoxy}methyl)-3-hydroxybenzoic acid]
IC50 [1]: 310 µM

O=C(O)CCc1ccc(COc2ccc(C(=O)c3ccc(OC4CCCC4)cc3O)cc2CCC(=O)O)cc1 [49(1)]
IC50 [1]: 330 µM

Cc1cc(C(=O)O)ccc1COc1ccc(C(=O)c2ccc(OC3CCCC3)cc2O)cc1CCC(=O)O [49(3)]
IC50 [1]: 240 µM

CC(C)COc1ccc(C(=O)c2ccc(OCc3ccc(C(=O)NS(C)(=O)=O)cc3)c(CCC(=O)O)c2)c(O)c1 [49(8)]
IC50 [1]: 320 µM

CC(C)COc1ccc(C(=O)c2ccc(OCc3ccc(C(=O)O)cc3)c(CCC(=O)O)c2)c(OCC(C)C)c1 [49(9)]
IC50 [1]: 490 µM

COc1cc(COc2ccc(C(=O)c3ccc(OC4CCCC4)cc3O)cc2CCC(=O)O)ccc1CCC(=O)O [49(11)]
IC50 [1]: 390 µM

CC(Oc1ccc(C(=O)c2ccc(OC3CCCC3)cc2O)cc1CCC(=O)O)c1ccc(C(=O)O)cc1 (centres unmarked) [49(12)]
Bone destruction inhibition rate [2]: 76%
Arthritis inhibition rate [2]: 50%
IC50 [1]: 700 µM

O=C(O)CCc1cc(C(=O)c2ccc(-c3cccs3)cc2O)ccc1OCc1ccc(C(=O)O)cc1 [49(16)]
IC50 [1]: 380 µM

CC(C)(C)COc1ccc(C(=O)c2ccc(OCc3ccc(C(=O)O)cc3)c(CCC(=O)O)c2)c(O)c1 [49(19)]
IC50 [1]: 280 µM

O=C(O)CCc1cc(C(=O)c2ccc(OC3CCCCC3)cc2O)ccc1OCc1ccc(C(=O)O)cc1 [49(20)]
IC50 [1]: 320 µM

O=C(O)CCc1cc(C(=O)c2ccc(CC3CCCC3)cc2O)ccc1OCc1ccc(C(=O)O)cc1 [49(22)]
IC50 [1]: 200 µM

O=C(O)CCc1cc(C(=O)c2ccc(OCC3CCCC3)cc2O)ccc1OCc1ccc(C(=O)O)cc1 [49(29)]
IC50 [1]: 220 µM

O=C(O)CCc1cc(C(=O)c2ccc(C3CCCC3)cc2O)ccc1OCc1ccc(C(=O)O)cc1 [49(39)]
IC50 [1]: 360 µM

O=C(O)CCc1cc(C(=O)c2ccc(OCc3ccco3)cc2O)ccc1OCc1ccc(C(=O)O)cc1 [49(40)]
IC50 [1]: 280 µM

CC(C)COc1cc(COc2ccc(C(=O)c3ccc(OC4CCCC4)cc3O)cc2CCC(=O)O)ccc1C(=O)O [49(46)]
IC50 [1]: 320 µM

CC(C)COc1ccc(C(=O)c2ccc(OCc3ccc(C(=O)O)cc3)c(CCC(=O)O)c2)c(O)c1 [49(47)]
IC50 [1]: 460 µM

CC(C)COc1ccc(C(=O)c2ccc(OCc3ccc(C(=O)NO)cc3)c(CCC(=O)O)c2)c(O)c1 [49(48)]
IC50 [1]: 310 µM

O=C(O)CCc1cc(C(=O)c2ccc(OC3CCCC3)cc2O)ccc1OCc1ccc(C(=O)O)cc1F [49(51)]
IC50 [1]: 300 µM

O=C(O)CCc1cc(C(=O)c2ccc(OC3CCCC3)cc2O)ccc1OCc1ccc(S(=O)(=O)O)cc1 [49(54)]
IC50 [1]: 270 µM

O=C(O)CCc1cc(C(=O)c2ccc(OCC3CCCCC3)cc2O)ccc1OCc1ccc(C(=O)O)cc1 [49(56)]
IC50 [1]: 130 µM

O=C(O)CCc1cc(C(=O)c2ccc(OC3CCCCCC3)cc2O)ccc1OCc1ccc(C(=O)O)cc1 [49(58)]
IC50 [1]: 190 µM

CS(=O)(=O)NC(=O)c1ccc(COc2ccc(C(=O)c3ccc(OC4CCCC4)cc3O)cc2CCC(=O)O)cc1 [49(62)]
IC50 [1]: 580 µM

O=C(O)CCc1cc(C(=O)c2ccc(OC3CCCC3)cc2O)ccc1OCc1ccc2[nH]c(=O)[nH]c(=O)c2c1 [49(70)]
IC50 [1]: 180 µM

CN1CCN(c2ccc(COc3ccc(C(=O)c4ccc(OC5CCCC5)cc4O)cc3CCC(=O)O)cc2)C(=O)C1=O [49(76)]
IC50 [1]: 380 µM

O=C(O)CCc1cc(C(=O)c2ccc(OC3CCCC3)cc2O)ccc1OCc1nc2cc(C(=O)O)ccc2s1 [49(77)]
IC50 [1]: 380 µM

CCOC(=O)c1ccc(COc2ccc(C(=O)c3ccc(OC4CCCC4)cc3O)cc2CCC(=O)O)cc1OC [54(2), 3-(5-[4-(cyclopentyloxy)-2-hydroxybenzoyl]-2-{[4-(ethoxycarbonyl)-3-methoxybenzyl]oxy}phenyl) propanoic acid]
Bone destruction inhibition rate [2]: 78%
Arthritis inhibition rate [2]: 65%

CCOC(=O)CCc1cc(C(=O)c2ccc(OCC(C)C)cc2O)ccc1OCc1ccc(C(=O)O)cc1 [72(1), 4-{[2-(3-ethoxy-3-oxopropyl)-4-(2-hydroxy-4-isobutoxybenzoyl)phenoxy]methyl} benzoic acid]
IC50 [1]: 240 µM

O=C(O)CCc1cc(C(=O)c2ccc(OC3CCCC3)cc2O)ccc1OCc1ccc2c(O)noc2c1 [Example 35, 3-{5-[4-(cyclopentyloxy)-2-hydroxybenzoyl]-2-[(3-hydroxyl-1,2-benzisoxazol-6-yl)methoxy]phenyl}propanoic acid]
Bone destruction inhibition rate [2]: 92%
Arthritis inhibition rate [2]: 76%
IC50 [1]: 290 µM

O=C(O)CCc1cc(C(=O)c2ccc(OC3CCCC3)cc2O)ccc1OCc1ccc(C(=O)O)cc1 [Example 44, 4-({2-(2-carboxyethyl)-4-[4-(cyclopentyloxy)-2-hydroxybenzoyl]phenoxy}methyl) benzoic acid]
IC50 [1]: 420 µM

O=C(O)CCc1cc(C(=O)c2ccc(OC3CCCC3)cc2O)ccc1OCc1csc2c(C(=O)O)cccc12 [Example 45, 3-({2-(2-carboxyethyl)-4-[4-(cyclopentyloxy)-2-hydroxybenzoyl]phenoxy}methyl)-1-benzothiophene-7-carboxilic acid]
Bone destruction inhibition rate [2]: 81%
Arthritis inhibition rate [2]: 55%
IC50 [1]: 140 µM

O=C(O)/C=C/c1ccc(COc2ccc(C(=O)c3ccc(OC4CCCC4)cc3O)cc2CCC(=O)O)cc1 [Example 46, (E)-3-(4-{[4-[4-(cyclopentyloxy)-2-hydroxybenzoyl]-2-(3-hydroxy-3-oxopropyl)phenoxy]methyl}phenyl)-2-propenoic acid]
IC50 [1]: 330 µM

O=C(O)CCc1cc(C(=O)c2ccc(OC3CCCC3)cc2O)ccc1OCc1ccc(-c2cc(O)no2)cc1 [Example 47, 3-(5-[4-(cyclopentyloxy)-2-hydroxybenzoyl]-2-{[4-(3-hydroxy-5-isoxazolyl)benzyl]oxy}phenyl) propanoic acid]
IC50 [1]: 170 µM

COc1cc(COc2ccc(C(=O)c3ccc(OC4CCCC4)cc3O)cc2CCC(=O)O)ccc1C(=O)O [Example 48, 4-({2-(2-carboxyethyl)-4-[4-(cyclopentyloxy)-2-hydroxybenzoyl]phenoxy}methyl)-2-methoxybenzoic acid]
Bone destruction inhibition rate [2]: 64%
Arthritis inhibition rate [2]: 57%
IC50 [1]: 700 µM

O=C(CCc1cc(C(=O)c2ccc(OC3CCCC3)cc2O)ccc1OCc1ccc2c(O)noc2c1)OCCN1CCOCC1 [Example 76, 2-(4-morpholinyl) ethyl 3-{5-[4-(cyclopentyloxy)-2-hydroxybenzoyl]-2-[(3-hydroxy-1,2-benzisoxazol-6-yl)methoxy]phenyl} propanoate]
Bone destruction inhibition rate [2]: 99%
Arthritis inhibition rate [2]: 90%
